Experimental data taken from US9090599B2, “Heteroarylmethyl amides” (Hoffman-La Roche Inc., priority 2010, dated 2015).
Read-outs that look alike come from different tables or passages of the source.

Key:
[1] = test system: ABCA1 protein; assay: Detection of upregulation of ABCA1 protein in THP-1 macrophage cells (ApoA-I binding, high content imaging); type: cell-based; settings: 24 hrs with compound, AlexaFluor 647 ApoA-I binding, read-out: ABCA1 protein increasing efficacy EC50
Procedure: The ability of compounds of the invention to increase the level of ABCA1 protein is determined in replicate cultures of THP-1 macrophage cells in 96-well microplates. Cells are plated at an initial density of 100,000 cells/well in 100 μl medium and differentiated to adherent macrophages with the addition of PMA (100 nM) for 68 hrs in 10% fetal bovine serum, 3 μl/L of b-mercaptoethanol, RPMI-1640 medium. Then, cells are incubated with RPMI-1640 medium containing 1% FCS, 25 μg/ml acetylated LDL, for 24 hours at 37°. Following incubation with acetylated LDL, cells are washed twice with 50 μl PBS and incubated with 100 μl of RPMI-1640 medium containing the compound of interest solubilized in DMSO for an additional 24 hrs. The final DMSO concentration in presence of cells is maintained at 0.5%. ApoA-I binding assay using High Content Image Analysis is initiated by replacing with fresh medium, RPMI without Phenol Red, 0.2% BSA containing AlexaFluor®647 labeled ApoA-I for 2 h/37° C./5% CO2. Then, cells are fixed with 4% Formaldehyde in PBS (15 min, RT). Following Nuclei are stained with Hoechst solution (3 μM PBS) and Cytoplasm with Cell Mask Blue (2 μg/ml PBS), 15 min, RT. Finally the stained cells are fixed with a second round of formaldehyde treatment. Fixed stained cells are washed and kept in PBS at 4° C. and can be read immediately until one month after preparation.
The Alexa Fluor 647-labeled Apolipoprotein A-I (20 nM) was prepared as follows: Human recombinant Apolipoprotein A-I (ApoA-I) was exchanged to a buffer of 0.02 M NaHCO3 at pH 8.2 on an NAP desalting column (GE Healthcare) and brought to a concentration to 40 μM (1.13 mg/ml) by adjustment with the same buffer. The ApoA-I was fluorescently labeled by incubation with Alexa Fluor carboxylic acid succimidyl ester. (Alexa Fluor 647, Invitrogen A-20006) at a 2:1 molar ratio (Alexa to ApoA-I) for 1 h under shaking at RT. The remaining unconjugated label was removed by buffer exchange to 0.02M NaHCO3 at pH 8.2.
Imaging and data collection were performed on an OPERA confocal microplate imaging reader using a 20× water immersion objective and UV360 or 405 laser to identify the cell nuclei and a 635 laser to identify the fluorescent ApoA-I. Eight fields of view are captured per well. Image capture and analysis was performed with the Acapella software. Background fluorescence detected in control wells without ApoA-I was subtracted.
Using XLfit3 program (ID Business Solutions Ltd. UK), the model 205 for Dose Response One Site is used to calculate the EC50 values. […] Preferably, the compounds of the present invention have EC50 values in a range of 0.1 μM to 3 μM.

[2] = target: T1, human CB1 receptor (Homo sapiens, UniProt P21554); assay: CB1 receptor affinity, [3H]-CP-55,940 displacement, HEK cell membranes; type: binding; settings: read-out: CB1 receptor affinity [% inhibition @ 10 μM]
T1 construct: expressed in transfected cells; host or cells: human embryonic kidney (HEK) cells, Semliki Forest Virus system, membrane preparations
How it was run: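 Membranes from HEK cells transiently expressing human CB1 (Semliki Forest Virus system) incubated with [3H]-CP-55,940 with or without test compound. Bound and free ligand separated by glass-fibre filtration and bound radioactivity counted by scintillation. Compounds tested at 10 μM, values reported as % inhibition of radioligand binding.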

[3] = target: T2, human CB2 receptor (Homo sapiens, UniProt P34972); assay: CB2 receptor affinity, [3H]-CP-55,940 displacement, HEK cell membranes; type: binding; settings: 10 μM compound, radioligand [3H]-CP-55,940
T2 construct: expressed in transfected cells; host or cells: human embryonic kidney (HEK) cells, Semliki Forest Virus system, membrane preparations
How it was run: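 Membranes from HEK cells transiently expressing human CB2 (Semliki Forest Virus) incubated with [3H]-CP-55,940 ± compound at 10 μM. Bound ligand separated by glass-fibre filtration and counted by scintillation; reported as % inhibition at 10 μM.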

[4] = 10 μM compound, radioligand [3H]-CP-55,940

T2 sequence (P34972 whole entry): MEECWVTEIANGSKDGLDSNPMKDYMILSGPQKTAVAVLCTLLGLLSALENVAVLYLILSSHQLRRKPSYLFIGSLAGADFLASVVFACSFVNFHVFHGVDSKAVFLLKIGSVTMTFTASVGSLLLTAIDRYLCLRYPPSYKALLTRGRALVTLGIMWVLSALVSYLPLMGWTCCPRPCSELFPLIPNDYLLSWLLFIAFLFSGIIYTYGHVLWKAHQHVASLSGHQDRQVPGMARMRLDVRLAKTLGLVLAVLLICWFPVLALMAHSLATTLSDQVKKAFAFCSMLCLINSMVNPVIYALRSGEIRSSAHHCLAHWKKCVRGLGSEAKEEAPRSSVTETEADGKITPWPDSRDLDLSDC
T1 sequence (P21554 whole entry): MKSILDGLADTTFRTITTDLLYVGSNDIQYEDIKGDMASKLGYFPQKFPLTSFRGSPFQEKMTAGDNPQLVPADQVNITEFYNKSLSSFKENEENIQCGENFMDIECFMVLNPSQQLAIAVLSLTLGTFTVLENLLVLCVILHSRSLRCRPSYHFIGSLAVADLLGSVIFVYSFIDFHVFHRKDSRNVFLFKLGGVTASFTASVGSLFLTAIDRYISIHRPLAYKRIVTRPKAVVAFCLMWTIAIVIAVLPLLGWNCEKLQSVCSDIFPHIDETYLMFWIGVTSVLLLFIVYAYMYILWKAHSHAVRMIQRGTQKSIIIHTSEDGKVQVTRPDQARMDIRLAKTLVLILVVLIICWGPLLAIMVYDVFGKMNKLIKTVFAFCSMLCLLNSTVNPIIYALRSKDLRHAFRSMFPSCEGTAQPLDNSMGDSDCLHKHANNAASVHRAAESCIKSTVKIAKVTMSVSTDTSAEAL

inhibition at 10 µM [2, 4] [%]	inhibition at 10 µM [3] [%]	SMILES	EC50 [1] [nM]	inhibition at 10 µM [2] [%]
42	29	O=C(NCc1cc(C2CC2)on1)c1cc(-c2ccc(Cl)cc2)c(OCC(F)(F)F)cn1 [Example 28, 4-(4-chlorophenyl)-N-((5-cyclopropylisoxazol-3-yl)methyl)-5-(2,2,2-trifluoroethoxy)picolinamide]	870	–
25	3	O=C(NCc1cc(C(F)(F)F)on1)c1cc(-c2ccc(Cl)cc2)c(OCC(F)(F)F)nn1 [Example 67, 5-(4-chloro-phenyl)-6-(2,2,2-trifluoro-ethoxy)-pyridazine-3-carboxylic acid (5-trifluoromethyl-isoxazol-3-ylmethyl)-amide]	780	–
35	19	O=C(NCc1nc(C2CC2)no1)c1cc(-c2ccc(Cl)cc2)c(OCC(F)(F)F)nn1 [Example 48, 5-(4-chloro-phenyl)-6-(2,2,2-trifluoro-ethoxy)-pyridazine-3-carboxylic acid (3-cyclopropyl-[1,2,4]oxadiazol-5-ylmethyl)-amide]	730	–
11	17	COc1cc(CNC(=O)c2ncc(OCC(F)(F)F)c(-c3ccc(Cl)c(Cl)c3)n2)on1 [Example 25, 4-(3,4-dichlorophenyl)-N-((3-methoxyisoxazol-5-yl)methyl)-5-(2,2,2-trifluoroethoxy)pyrimidine-2-carboxamide]	1470	–
2	-7	Cc1cc(-c2cc(C(=O)NCc3csc(C4CC4)n3)cnc2OCC(F)(F)F)ccc1Cl [Example 71, 5-(4-chloro-3-methylphenyl)-N-((2-cyclopropylthiazol-4-yl)methyl)-6-(2,2,2-trifluoroethoxy)nicotinamide]	4290	–
15	8	O=C(NCc1nc(C(F)(F)F)no1)c1cnc(OCC(F)(F)F)c(-c2ccc3nonc3c2)c1 [Example 100, 5-Benzo[1,2,5]oxadiazol-5-yl-6-(2,2,2-trifluoro-ethoxy)-N-(3-trifluoromethyl-[1,2,4]oxadiazol-5-yl-methyl)-nicotinamide]	580	–
15	-4	Cc1ccc(-c2cc(C(=O)NCc3nc(C(F)(F)F)no3)cnc2OCC(F)(F)F)cc1Cl [Example 80, 5-(3-chloro-4-methylphenyl)-6-(2,2,2-trifluoroethoxy)-N-((3-(trifluoromethyl)-1,2,4-oxadiazol-5-yl)methyl)nicotinamide]	3130	–
42	4	Cc1ccc(-c2cc(C(=O)NCc3nc(C(F)(F)F)no3)cnc2OCC(F)(F)F)cc1 [Example 79, 5-p-tolyl-6-(2,2,2-trifluoroethoxy)-N-((3-(trifluoromethyl)-1,2,4-oxadiazol-5-yl)methyl)nicotinamide]	1170	–
33	14	COc1cc(CNC(=O)c2cnc(O[C@@H](C)C(F)(F)F)c(-c3ccc(Cl)cc3)c2)on1 [Example 34, (S)-5-(4-chlorophenyl)-N-((3-methoxyisoxazol-5-yl)methyl)-6-(1,1,1-trifluoropropan-2-yloxy)nicotinamide]	770	–
30	0	O=C(NCc1nc(C(F)(F)F)no1)c1cc(-c2ccc(Cl)cc2)c(OCC(F)(F)F)nn1 [Example 46, 5-(4-chloro-phenyl)-6-(2,2,2-trifluoro-ethoxy)-pyridazine-3-carboxylic acid (3-trifluoromethyl-[1,2,4]oxadiazol-5-ylmethyl)-amide]	780	–
40	24	CC(C)c1cc(CNC(=O)c2cc(-c3ccc(Cl)cc3)c(OCC(F)(F)F)cn2)no1 [Example 27, 4-(4-chlorophenyl)-N-((5-isopropylisoxazol-3-yl)methyl)-5-(2,2,2-trifluoroethoxy)picolinamide]	970	–

The next lines start with the compound.

SMILES	inhibition at 10 µM [2, 4] [%]	inhibition at 10 µM [3] [%]	EC50 [1] [nM]	inhibition at 10 µM [2] [%]
O=C(NCc1nc(C(F)(F)F)no1)c1cnc(OCC(F)(F)F)c(-c2ccc(Cl)cc2)c1 [Example 15, 5-(4-chloro-phenyl)-6-(2,2,2-trifluoro-ethoxy)-N-(3-trifluoromethyl-[1,2,4]oxadiazol-5-ylmethyl)-nicotinamide]	45	-6	840	–
CC(C)c1nc(CNC(=O)c2cnc(OCC(F)(F)F)c(-c3ccc(Cl)cc3)c2)cs1 [Example 8, 5-(4-chloro-phenyl)-N-(2-isopropyl-thiazol-4-ylmethyl)-6-(2,2,2-trifluoro-ethoxy)-nicotinamide]	–	10	900	24
CCc1cc(CNC(=O)c2cc(-c3ccc(Cl)cc3)c(OCC(F)(F)F)cn2)on1 [Example 3, 4-(4-chloro-phenyl)-5-(2,2,2-trifluoro-ethoxy)-pyridine-2-carboxylic acid (3-ethyl-isoxazol-5-ylmethyl)-amide]	–	18	1240	38
COc1cc(CNC(=O)c2cnc(OCC(F)(F)F)c(-c3ccc(Cl)cc3)c2)on1 [Example 5, 5-(4-chloro-phenyl)-N-(3-methoxy-isoxazol-5-ylmethyl)-6-(2,2,2-trifluoro-ethoxy)-nicotinamide]	48	5	2100	–
CC(C)c1cc(CNC(=O)c2cnc(OCC(F)(F)F)c(-c3ccc(Cl)cc3)c2)no1 [Example 31, 5-(4-chlorophenyl)-N-((5-isopropylisoxazol-3-yl)methyl)-6-(2,2,2-trifluoroethoxy)nicotinamide]	–	11	530	47
COc1cc(CNC(=O)c2cc(-c3ccc(Cl)c(C)c3)c(OCC(F)(F)F)cn2)on1 [Example 74, 4-(4-chloro-3-methylphenyl)-N-((3-methoxyisoxazol-5-yl)methyl)-5-(2,2,2-trifluoroethoxy)picolinamide]	–	22	1300	11
COc1cc(CNC(=O)c2cc(-c3ccc(Cl)cc3)c(OCC(F)(F)F)cn2)on1 [Example 1, 4-(4-chloro-phenyl)-5-(2,2,2-trifluoro-ethoxy)-pyridine-2-carboxylic acid (3-methoxy-isoxazol-5-ylmethyl)-amide]	32	28	2010	–
CCCc1nc(CNC(=O)c2cnc(OCC3CC3)c(-c3ccc(Cl)cc3)c2)cs1 [Example 11, 5-(4-chloro-phenyl)-6-cyclopropylmethoxy-N-(2-propyl-thiazol-4-ylmethyl)-nicotinamide]	–	12	1500	25
CC(C)c1nc(CNC(=O)c2cc(-c3ccc(Cl)cc3)c(OCC(F)(F)F)cn2)cs1 [Example 6, 4-(4-chloro-phenyl)-5-(2,2,2-trifluoro-ethoxy)-pyridine-2-carboxylic acid (2-isopropyl-thiazol-4-ylmethyl)-amide]	5	15	7800	–
O=C(NCc1nc(C(F)(F)F)no1)c1cnc(OC2CCC2)c(-c2ccc(F)c(F)c2)c1 [Example 91, 6-cyclobutoxy-5-(3,4-difluorophenyl)-N-((3-(trifluoromethyl)-1,2,4-oxadiazol-5-yl)methyl)nicotinamide]	23	12	620	–
